Reference: the NIST ThermoML archive (doi:10.1016/j.jct.2008.09.002)

Assays:
[1] = xn = mol fraction of the nth substance listed; details: 101.3 kPa, Liquid, Vibrating tube method
[2] = molar heat capacity at constant pressure; xn = mol fraction of the nth substance listed; details: 101.3 kPa, Liquid, Small sample (50 mg) DSC
[3] = excess molar enthalpy (molar enthalpy of mixing); xn = mol fraction of the nth substance listed; details: 303.15 K, 101.3 kPa, Liquid, Calvet calorimetry

C[N+](=O)[O-] [nitromethane] + CCn1cc[n+](C)c1.O=S(=O)([O-])C(F)(F)F
Details | mass density, [1] [kg/m3] | molar heat capacity at constant pressure, [2] [J/K/mol]
293.15 K, x2 = 0.0525 | 1186.8 | 119.2
293.15 K, x2 = 0.0981 | 1217.2 | 130.6
293.15 K, x2 = 0.2013 | 1266.6 | 157
293.15 K, x2 = 0.3063 | 1300.5 | 183.7
293.15 K, x2 = 0.4027 | 1323.1 | 208.2
293.15 K, x2 = 0.4995 | 1340.5 | 233.2
293.15 K, x2 = 0.5934 | 1353.9 | 257.3
293.15 K, x2 = 0.6847 | 1364.4 | 280.5
293.15 K, x2 = 0.7698 | 1372.6 | 301.6
293.15 K, x2 = 0.8671 | 1380.5 | 326.9
298.15 K, x2 = 0.0525 | 1180.5 | 119.5
298.15 K, x2 = 0.0981 | 1211.2 | 130.9
298.15 K, x2 = 0.2013 | 1261.1 | 157.6
298.15 K, x2 = 0.3063 | 1295.4 | 184.4
298.15 K, x2 = 0.4027 | 1318.2 | 209.1
298.15 K, x2 = 0.4995 | 1335.7 | 234.3
298.15 K, x2 = 0.5934 | 1349.2 | 258.5
298.15 K, x2 = 0.6847 | 1359.9 | 281.9
298.15 K, x2 = 0.7698 | 1368.2 | 303.3
298.15 K, x2 = 0.8671 | 1376.2 | 328.8
303.15 K, x2 = 0.0525 | 1174.3 | 120
303.15 K, x2 = 0.0981 | 1205.3 | 131.4
303.15 K, x2 = 0.2013 | 1255.7 | 158.3
303.15 K, x2 = 0.3063 | 1290.3 | 185.2
303.15 K, x2 = 0.4027 | 1313.3 | 210.1
303.15 K, x2 = 0.4995 | 1331 | 235.5
303.15 K, x2 = 0.5934 | 1344.7 | 259.9
303.15 K, x2 = 0.6847 | 1355.4 | 283.3
303.15 K, x2 = 0.7698 | 1363.8 | 305
303.15 K, x2 = 0.8671 | 1371.9 | 330.7
308.15 K, x2 = 0.0525 | 1168 | 120.4
308.15 K, x2 = 0.0981 | 1199.3 | 131.8
308.15 K, x2 = 0.2013 | 1250.2 | 159.1
308.15 K, x2 = 0.3063 | 1285.2 | 186.1
308.15 K, x2 = 0.4027 | 1308.4 | 211.1
308.15 K, x2 = 0.4995 | 1326.3 | 236.7
308.15 K, x2 = 0.5934 | 1340.1 | 261.3
308.15 K, x2 = 0.6847 | 1351 | 284.8
308.15 K, x2 = 0.7698 | 1359.4 | 306.7
308.15 K, x2 = 0.8671 | 1367.6 | 332.7
313.15 K, x2 = 0.0525 | 1161.7 | 121
313.15 K, x2 = 0.0981 | 1193.4 | 132.4
313.15 K, x2 = 0.2013 | 1244.8 | 160
313.15 K, x2 = 0.3063 | 1280.1 | 187
313.15 K, x2 = 0.4027 | 1303.6 | 212.1
313.15 K, x2 = 0.4995 | 1321.6 | 238
313.15 K, x2 = 0.5934 | 1335.5 | 262.7
313.15 K, x2 = 0.6847 | 1346.5 | 286.3
313.15 K, x2 = 0.7698 | 1355.1 | 308.5
313.15 K, x2 = 0.8671 | 1363.4 | 334.7
318.15 K, x2 = 0.0525 | 1155.4 | 121.4
318.15 K, x2 = 0.0981 | 1187.4 | 132.8
318.15 K, x2 = 0.2013 | 1239.3 | 160.8
318.15 K, x2 = 0.3063 | 1275 | 188
318.15 K, x2 = 0.4027 | 1298.7 | 213
318.15 K, x2 = 0.4995 | 1316.9 | 239.2
318.15 K, x2 = 0.5934 | 1331 | 264.2
318.15 K, x2 = 0.6847 | 1342.1 | 287.8
318.15 K, x2 = 0.7698 | 1350.7 | 310.3
318.15 K, x2 = 0.8671 | 1359.1 | 336.7

[3]
Details | excess molar enthalpy [kcal/mol]
x2 = 0.1234 | -0.0301
x2 = 0.2533 | -0.0457
x2 = 0.3774 | -0.0468
x2 = 0.5026 | -0.048
x2 = 0.6253 | -0.0399
x2 = 0.7438 | -0.0299
x2 = 0.8668 | -0.0139

C[N+](=O)[O-] [nitromethane] + CCOS(=O)(=O)[O-].CCn1cc[n+](C)c1
Details | mass density, [1] [kg/m3] | molar heat capacity at constant pressure, [2] [J/K/mol]
293.15 K, x2 = 0.0513 | 1162.5 | 120.8
293.15 K, x2 = 0.0991 | 1176.4 | 134.3
293.15 K, x2 = 0.2013 | 1196.4 | 164
293.15 K, x2 = 0.3095 | 1209.6 | 195.4
293.15 K, x2 = 0.4073 | 1217.8 | 223.5
293.15 K, x2 = 0.5056 | 1223.9 | –
293.15 K, x2 = 0.5489 | 1226.3 | 264
293.15 K, x2 = 0.5944 | 1228.3 | –
293.15 K, x2 = 0.689 | 1232.1 | 304
293.15 K, x2 = 0.7805 | 1235.1 | 329.9
293.15 K, x2 = 0.8817 | 1237.9 | 358.6
293.15 K, x2 = 0.9398 | 1239.3 | –
293.15 K, x2 = 0.9522 | 1239.6 | –
298.15 K, x2 = 0.0513 | 1156.4 | 121.1
298.15 K, x2 = 0.0991 | 1170.9 | 134.7
298.15 K, x2 = 0.2013 | 1191.5 | 164.6
298.15 K, x2 = 0.3095 | 1205.1 | 196.1
298.15 K, x2 = 0.4073 | 1213.6 | 224.4
298.15 K, x2 = 0.5056 | 1220 | –
298.15 K, x2 = 0.5489 | 1222.4 | 265.2
298.15 K, x2 = 0.5944 | 1224.5 | –
298.15 K, x2 = 0.689 | 1228.4 | 305.5
298.15 K, x2 = 0.7805 | 1231.5 | 331.6
298.15 K, x2 = 0.8817 | 1234.4 | 360.5
298.15 K, x2 = 0.9398 | 1235.8 | –
298.15 K, x2 = 0.9522 | 1236.2 | –
303.15 K, x2 = 0.0513 | 1150.4 | 121.6
303.15 K, x2 = 0.0991 | 1165.3 | 135.3
303.15 K, x2 = 0.2013 | 1186.6 | 165.3
303.15 K, x2 = 0.3095 | 1200.7 | 196.9
303.15 K, x2 = 0.4073 | 1209.5 | 225.5
303.15 K, x2 = 0.5056 | 1216 | –
303.15 K, x2 = 0.5489 | 1218.5 | 266.6
303.15 K, x2 = 0.5944 | 1220.7 | –
303.15 K, x2 = 0.689 | 1224.7 | 307.2
303.15 K, x2 = 0.7805 | 1228 | 333.5
303.15 K, x2 = 0.8817 | 1230.9 | 362.6
303.15 K, x2 = 0.9398 | 1232.4 | –
303.15 K, x2 = 0.9522 | 1232.7 | –
308.15 K, x2 = 0.0513 | 1144.3 | 122.1
308.15 K, x2 = 0.0991 | 1159.7 | 135.9
308.15 K, x2 = 0.2013 | 1181.7 | 166
308.15 K, x2 = 0.3095 | 1196.2 | 197.8
308.15 K, x2 = 0.4073 | 1205.3 | 226.7
308.15 K, x2 = 0.5056 | 1212.1 | –
308.15 K, x2 = 0.5489 | 1214.6 | 268.1
308.15 K, x2 = 0.5944 | 1216.9 | –
308.15 K, x2 = 0.689 | 1221 | 308.9
308.15 K, x2 = 0.7805 | 1224.4 | 335.5
308.15 K, x2 = 0.8817 | 1227.5 | 364.8
308.15 K, x2 = 0.9398 | 1229 | –
308.15 K, x2 = 0.9522 | 1229.3 | –
313.15 K, x2 = 0.0513 | 1138.2 | 122.7
313.15 K, x2 = 0.0991 | 1154.2 | 136.6
313.15 K, x2 = 0.2013 | 1176.9 | 166.8
313.15 K, x2 = 0.3095 | 1191.8 | 198.7
313.15 K, x2 = 0.4073 | 1201.2 | 227.9
313.15 K, x2 = 0.5056 | 1208.2 | –
313.15 K, x2 = 0.5489 | 1210.8 | 269.7
313.15 K, x2 = 0.5944 | 1213.1 | –
313.15 K, x2 = 0.689 | 1217.4 | 310.9
313.15 K, x2 = 0.7805 | 1220.9 | 337.7
313.15 K, x2 = 0.8817 | 1224 | 367.1
313.15 K, x2 = 0.9398 | 1225.6 | –
313.15 K, x2 = 0.9522 | 1225.9 | –
318.15 K, x2 = 0.0513 | 1132.2 | 123.2
318.15 K, x2 = 0.0991 | 1148.6 | 137.2
318.15 K, x2 = 0.2013 | 1172 | 167.6
318.15 K, x2 = 0.3095 | 1187.4 | 199.7
318.15 K, x2 = 0.4073 | 1197.1 | 229.2
318.15 K, x2 = 0.5056 | 1204.2 | –
318.15 K, x2 = 0.5489 | 1207 | 271.4
318.15 K, x2 = 0.5944 | 1209.3 | –
318.15 K, x2 = 0.689 | 1213.8 | 312.9
318.15 K, x2 = 0.7805 | 1217.3 | 340
318.15 K, x2 = 0.8817 | 1220.6 | 369.6
318.15 K, x2 = 0.9398 | 1222.2 | –
318.15 K, x2 = 0.9522 | 1222.5 | –

[3]
Details | excess molar enthalpy [kcal/mol]
x2 = 0.1001 | -0.0688
x2 = 0.1977 | -0.116
x2 = 0.3075 | -0.142
x2 = 0.4001 | -0.154
x2 = 0.5071 | -0.148
x2 = 0.6026 | -0.131
x2 = 0.6953 | -0.108
x2 = 0.8026 | -0.0736
x2 = 0.8668 | -0.05
